The source of these data is patent US20250163066A1, “PROTACs of MALT1” (TEGID THERAPEUTICS, INC., priority 2022, published 2025).

In general, EC50 refers to the concentration at which the effect is half-maximal. For orientation: CC50 means the concentration at which the toxic effect on the cells reaches its halfway point.

Test [1] deals with MALT1 (Homo sapiens (Human), UniProt Q9UDY8). The experiment in a line: MALT1 enzymatic activity inhibition (fluorescence, Ac-LRSR-AMC substrate). The class given is biochemical. The settings on record: recombinant MALT1 1.5 ng/μl, Ac-LRSR-AMC 1 μM. A digest of the protocol: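 Recombinant human MALT1 (1.5 ng/μl final) preincubated 10 min at rt with compounds in 50 mM HEPES pH 7.2-7.4, 100 mM NaCl, 900 mM sodium citrate, 10 mM DTT; 1 μM Ac-LRSR-AMC then added. AMC fluorescence read at start and after 30 min 37 °C plus 30 min rt; difference gives signal, % inhibition fitted to IC50.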
MALT1, sequence (Q9UDY8 whole entry): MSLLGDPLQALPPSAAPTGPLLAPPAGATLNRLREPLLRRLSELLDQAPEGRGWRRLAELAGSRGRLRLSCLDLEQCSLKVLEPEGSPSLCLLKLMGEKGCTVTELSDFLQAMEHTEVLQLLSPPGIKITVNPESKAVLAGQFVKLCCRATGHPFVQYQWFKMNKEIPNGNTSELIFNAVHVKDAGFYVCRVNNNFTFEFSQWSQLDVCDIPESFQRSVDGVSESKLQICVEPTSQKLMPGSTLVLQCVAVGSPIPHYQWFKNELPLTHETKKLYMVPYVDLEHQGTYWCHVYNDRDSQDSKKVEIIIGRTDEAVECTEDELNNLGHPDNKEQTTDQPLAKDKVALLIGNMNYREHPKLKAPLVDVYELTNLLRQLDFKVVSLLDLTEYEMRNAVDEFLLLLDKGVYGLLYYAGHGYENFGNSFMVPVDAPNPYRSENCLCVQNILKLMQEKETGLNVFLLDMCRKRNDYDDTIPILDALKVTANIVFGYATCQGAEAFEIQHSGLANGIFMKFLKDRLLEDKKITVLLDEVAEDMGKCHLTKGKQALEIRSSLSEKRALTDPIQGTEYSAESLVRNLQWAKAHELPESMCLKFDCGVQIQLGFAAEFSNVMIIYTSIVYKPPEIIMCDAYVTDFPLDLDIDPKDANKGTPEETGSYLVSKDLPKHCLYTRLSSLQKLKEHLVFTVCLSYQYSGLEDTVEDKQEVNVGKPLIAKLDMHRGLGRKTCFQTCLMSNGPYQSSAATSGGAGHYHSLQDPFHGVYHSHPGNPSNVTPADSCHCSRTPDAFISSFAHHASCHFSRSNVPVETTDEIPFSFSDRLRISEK

In test [2] the test system is IL-2 MALT1-dependent release in Jurkat cells. The experiment in a line: cells. The format is cell-based. The settings on record: Homo sapiens; for EC50: Jurkat cells stimulated with antiCD3/antiCD28 for 24 h, IL-2 ELISA, read-out: EC50, IL-2 MALT1-dependent release inhibition. The method, then:
Jurkat cells (ATCC, USA) (100,000 cells/well in a 96 well flat-bottom plate (Greiner, #655061) were cultured in RPMI 1640 supplemented with 10% FBS at 37° C., 5% CO2 in a humidified cell culture incubator for 0.5-1 h. Then 10 μl/well 15× compound (or DMSO) was added in duplicates. Cells were incubated with compound in a humidified cell culture incubator for 0.5-1 h. After the incubation, 10 μl/well of 15× human antiCD3 HIT3a antibody (BioLegend) together with 10 μl/well of 15× human antiCD28 antibody (Invitrogen) were added to stimulate Jurkat cells for 24 h. After 24 h of stimulation, supernatants were collected and IL-2 levels in supernatants were assessed using IL-2 ELISA kit (Vector-Best, Russia).

Turning to `O=C1CCC(N2Cc3cc(N4CCN(C(=O)CCCCCc5nc(-c6ncc(NC(=O)Nc7cnc8ccnn8c7C7CCCC7)cc6Cl)no5)CC4)ccc3C2=O)C(=O)N1` (stereo not shown) [Compound 3, 1-[5-chloro-6-[5-[6-[4-[2-(2,6-dioxo-3-piperidyl)-1-oxo-isoindolin-5-yl]piperazin-1-yl]-6-oxo-hexyl]-1,2,4-oxadiazol-3-yl]-3-pyridyl]-3-(7-cyclopentylpyrazolo[1,5-a]pyrimidin-6-yl)urea], the EC50 in test [1] was at most 0.2 µM; in test [2], under 0.5 µM.

In the case of `Cc1cc(NC(=O)Nc2cnc3ccnn3c2C2CCCC2)cnc1-c1noc(CCCCN2CCN(c3cc4c(cc3F)C(=O)N(C3CCC(=O)NC3=O)C4=O)CC2)n1` (stereo not shown) [Compound 57, 1-(7-cyclopentylpyrazolo[1,5-a]pyrimidin-6-yl)-3-[6-[5-[4-[4-[2-(2,6-dioxo-3-piperidyl)-6-fluoro-1,3-dioxo-isoindolin-5-yl]piperazin-1-yl]butyl]-1,2,4-oxadiazol-3-yl]-5-methyl-3-pyridyl]urea], the EC50 was at most 0.2 µM in test [1] and 1 to 5 µM in test [2].

As for `Cc1cc2ncc(NC(=O)Nc3cnc(-c4noc(CCCCCC(=O)N5CCN(c6ccc7c(c6)CN(C6CCC(=O)NC6=O)C7=O)CC5)n4)c(C)c3)c(C3CCCC3)n2n1` (stereo not shown) [Compound 82, 1-(7-cyclopentyl-2-methyl-pyrazolo[1,5-a]pyrimidin-6-yl)-3-[6-[5-[6-[4-[2-(2,6-dioxo-3-piperidyl)-1-oxo-isoindolin-5-yl]piperazin-1-yl]-6-oxo-hexyl]-1,2,4-oxadiazol-3-yl]-5-methyl-3-pyridyl]urea], the EC50 is at most 0.2 µM in test [1] and 1 to 5 µM in test [2].

In the case of `O=C1CCC(N2Cc3cc(N4CCN(CCCCCc5nc(-c6ncc(NC(=O)Nc7cnc8ccnn8c7C7CCCC7)cc6C(F)(F)F)no5)CC4)ccc3C2=O)C(=O)N1` (stereo not shown) [Compound 108, 1-(7-cyclopentylpyrazolo[1,5-a]pyrimidin-6-yl)-3-[6-[5-[5-[4-[2-(2,6-dioxo-3-piperidyl)-1-oxo-isoindolin-5-yl]piperazin-1-yl]pentyl]-1,2,4-oxadiazol-3-yl]-5-(trifluoromethyl)-3-pyridyl]urea], the EC50 in test [1] was at most 0.2 µM; in test [2], under 0.5 µM.

As for `O=C1CCC(N2Cc3cc(N4CCN(C(=O)CCCc5nc(-c6ncc(NC(=O)Nc7cnc8ccnn8c7C7CCCC7)cc6C(F)(F)F)no5)CC4)ccc3C2=O)C(=O)N1` (stereo not shown) [Compound 106, 1-(7-cyclopentylpyrazolo[1,5-a]pyrimidin-6-yl)-3-[6-[5-[4-[4-[2-(2,6-dioxo-3-piperidyl)-1-oxo-isoindolin-5-yl]piperazin-1-yl]-4-oxo-butyl]-1,2,4-oxadiazol-3-yl]-5-(trifluoromethyl)-3-pyridyl]urea], the EC50 in test [1] was at most 0.2 µM; in test [2], under 0.5 µM.

Regarding `O=C1CCC(N2Cc3cc(N4CCN(C(=O)CCCCCc5nnc(-c6ccc(NC(=O)Nc7cnc8ccnn8c7C7CCCC7)cn6)o5)CC4)ccc3C2=O)C(=O)N1` (stereo not shown) [Compound 111, 1-(7-cyclopentylpyrazolo[1,5-a]pyrimidin-6-yl)-3-[6-[5-[6-[4-[2-(2,6-dioxo-3-piperidyl)-1-oxo-isoindolin-5-yl]piperazin-1-yl]-6-oxo-hexyl]-1,3,4-oxadiazol-2-yl]-3-pyridyl]urea], the EC50 in test [1] is 1 to 5 µM. The CC50 in test [2] (Jurkat, 24 h, read-out: CC50 (IL-2 MALT1-dependent release inhibition)) was over 5 µM.

Take `Cc1cc(NC(=O)Nc2cnc3ccnn3c2C2CCCC2)cnc1-c1noc(CCCN2CCN(c3ccc4c(c3)CN(C3CCC(=O)NC3=O)C4=O)CC2)n1` (stereo not shown) [Compound 18, 1-(7-cyclopentylpyrazolo[1,5-a]pyrimidin-6-yl)-3-[6-[5-[3-[4-[2-(2,6-dioxo-3-piperidyl)-1-oxo-isoindolin-5-yl]piperazin-1-yl]propyl]-1,2,4-oxadiazol-3-yl]-5-methyl-3-pyridyl]urea]: the EC50 in test [1] is at most 0.2 µM; in test [2], under 0.5 µM.

Take `O=C1CCC(N2Cc3cc(N4CCN(C(=O)CCCCCc5nc(-c6ncc(NC(=O)Nc7cnc8ccnn8c7C7CCCC7)cc6C(F)(F)F)no5)CC4)ccc3C2=O)C(=O)N1` (stereo not shown) [Compound 104, 1-(7-cyclopentylpyrazolo[1,5-a]pyrimidin-6-yl)-3-[6-[5-[6-[4-[2-(2,6-dioxo-3-piperidyl)-1-oxo-isoindolin-5-yl]piperazin-1-yl]-6-oxo-hexyl]-1,2,4-oxadiazol-3-yl]-5-(trifluoromethyl)-3-pyridyl]urea]: the EC50 in test [1] is at most 0.2 µM; in test [2], under 0.5 µM.

Take `O=C1CCC(N2Cc3cc(N4CCN(CCCCCCc5nc(-c6ncc(NC(=O)Nc7cnc8ccnn8c7C7CCCC7)cc6Cl)no5)CC4)ccc3C2=O)C(=O)N1` (stereo not shown) [Compound 78, 1-[5-chloro-6-[5-[6-[4-[2-(2,6-dioxo-3-piperidyl)-1-oxo-isoindolin-5-yl]piperazin-1-yl]hexyl]-1,2,4-oxadiazol-3-yl]-3-pyridyl]-3-(7-cyclopentylpyrazolo[1,5-a]pyrimidin-6-yl)urea]: the EC50 was at most 0.2 µM in test [1] and under 0.5 µM in test [2].

Take `Cc1cc(NC(=O)Nc2cnc3ccnn3c2C2CCCC2)cnc1-c1noc(CCOCCN2CCN(c3ccc4c(c3)CN(C3CCC(=O)NC3=O)C4=O)CC2)n1` (stereo not shown) [Compound 16, 1-(7-cyclopentylpyrazolo[1,5-a]pyrimidin-6-yl)-3-[6-[5-[2-[2-[4-[2-(2,6-dioxo-3-piperidyl)-1-oxo-isoindolin-5-yl]piperazin-1-yl]ethoxy]ethyl]-1,2,4-oxadiazol-3-yl]-5-methyl-3-pyridyl]urea]: the EC50 was 0.2 to 0.5 µM in test [1] and 1 to 5 µM in test [2].

Turning to `O=C1CCC(N2Cc3cc(N4CCN(C(=O)CCCCc5nc(-c6ncc(NC(=O)Nc7cnc8ccnn8c7C7CCCC7)cc6C(F)(F)F)no5)CC4)ccc3C2=O)C(=O)N1` (stereo not shown) [Compound 96, 1-(7-cyclopentylpyrazolo[1,5-a]pyrimidin-6-yl)-3-[6-[5-[5-[4-[2-(2,6-dioxo-3-piperidyl)-1-oxo-isoindolin-5-yl]piperazin-1-yl]-5-oxo-pentyl]-1,2,4-oxadiazol-3-yl]-5-(trifluoromethyl)-3-pyridyl]urea], the results for the EC50 in test [1] and in test [2] were at most 0.2 µM and under 0.5 µM, respectively.

For `Cc1cc2ncc(NC(=O)Nc3cnc(-c4noc(CCCCC(=O)N5CCN(c6ccc7c(c6)CN(C6CCC(=O)NC6=O)C7=O)CC5)n4)c(C)c3)c(C3CCCO3)n2n1` (stereo not shown) [Compound 84, 1-[6-[5-[5-[4-[2-(2,6-dioxo-3-piperidyl)-1-oxo-isoindolin-5-yl]piperazin-1-yl]-5-oxo-pentyl]-1,2,4-oxadiazol-3-yl]-5-methyl-3-pyridyl]-3-(2-methyl-7-tetrahydrofuran-2-yl-pyrazolo[1,5-a]pyrimidin-6-yl)urea], the EC50 in test [1] is at most 0.2 µM; in test [2], 1 to 5 µM.

Consider `COc1cc(-c2c(NC(=O)Nc3cnc(-c4noc(CNC(=O)CCOCCN5CCN(c6ccc7c(c6)CN(C6CCC(=O)NC6=O)C7=O)CC5)n4)c(C)c3)cnc3ccnn23)cc(OC)c1OC` (stereo not shown) [Compound 1, 3-(2-{4-[2-(2,6-Dioxopiperidin-3-yl)-1-oxo-2,3-dihydro-1H-isoindol-5-yl]piperazin-1-yl}ethoxy)-N-[(3-{3-methyl-5-[({[7-(3,4,5-trimethoxyphenyl)pyrazolo[1,5-a]pyrimidin-6-yl]amino}carbonyl)amino]pyridin-2-yl}-1,2,4-oxadiazol-5-yl)methyl]propenamide], for which the EC50 in test [1] is over 5 µM.

Regarding `CC(C)c1c(NC(=O)Nc2cnc(-c3noc(CCCCC(=O)N4CCN(c5ccc6c(c5)CN(C5CCC(=O)N(COC(=O)C(C)(C)C)C5=O)C6=O)CC4)n3)c(Cl)c2)cnc2ccnn12` (stereo not shown) [Compound 138, [3-[5-[4-[5-[3-[3-chloro-5-[(7-isopropylpyrazolo[1,5-a]pyrimidin-6-yl)carbamoylamino]-2-pyridyl]-1,2,4-oxadiazol-5-yl]pentanoyl]piperazin-1-yl]-1-oxo-isoindolin-2-yl]-2,6-dioxo-1-piperidyl]methyl 2,2-dimethylpropanoate], in test [1], the EC50 was at most 0.2 µM.

As for `CCCCOP(=O)(OCCCC)OCN1C(=O)CCC(N2Cc3cc(N4CCN(C(=O)CCCCc5nc(-c6ncc(NC(=O)Nc7cnc8ccnn8c7C(C)C)cc6C)no5)CC4)ccc3C2=O)C1=O` (stereo not shown) [Compound 147, dibutyl [3-[5-[4-[5-[3-[5-[(7-isopropylpyrazolo[1,5-a]pyrimidin-6-yl)carbamoylamino]-3-methyl-2-pyridyl]-1,2,4-oxadiazol-5-yl]pentanoyl]piperazin-1-yl]-1-oxo-isoindolin-2-yl]-2,6-dioxo-1-piperidyl]methyl phosphate], the EC50 in test [1] is at most 0.2 µM.

For `Cc1cc(NC(=O)Nc2cnc3ccnn3c2C2CCCO2)cnc1-n1cc(C(=O)NCCOCCOCCC(=O)N2CCN(c3ccc4c(c3)CN(C3CCC(=O)NC3=O)C4=O)CC2)cn1` (stereo not shown) [Compound 33, N-[2-[2-[3-[4-[2-(2,6-dioxo-3-piperidyl)-1-oxo-isoindolin-5-yl]piperazin-1-yl]-3-oxo-propoxy]ethoxy]ethyl]-1-[3-methyl-5-[(7-tetrahydrofuran-2-ylpyrazolo[1,5-a]pyrimidin-6-yl)carbamoylamino]-2-pyridyl]pyrazole-4-carboxamide], in test [1], the EC50 fell in the range of 1 to 5 µM.
